“And” between values parts separate entries of the source, which are not always exact repeats. Equal values may be shown once.
Test system: Swiss mice, Sarcoma 180 sc, mean tumor weight T/C
Experiment: NCI In Vivo Anticancer Drug Screen. Data for tumor model Sarcoma 180 (subcutaneous) in Swiss mice
Conditions: endpoint: mean tumor weight, higher = larger tumour
Method in brief: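 Mice bearing transplanted tumors were treated with compound, and survival or tumor size was measured. Values are expressed as the treated-group measurement (T) divided by the vehicle-treated control measurement (C).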

[1] = dose: 500.0 mg/kg/injection, schedule: Q01DX007 (ip), vehicle: carboxymethylcellulose (CMC)

With CCCCCCCCCCCCO[P+](=O)OCCCCCCCCCCCC the T/C (dose: 100.0 mg/kg/injection, schedule: Q01DX007 (ip), vehicle: carboxymethylcellulose (CMC)) was 111 % of control, the T/C (dose: 111.0 mg/kg/injection, schedule: Q#A X014 (ip), vehicle: carboxymethylcellulose (CMC)) was 45 % of control and the T/C (dose: 222.0 mg/kg/injection, schedule: Q01DX007 (ip), vehicle: carboxymethylcellulose (CMC)) was 47 % of control and 71 % of control. The T/C (dose: 250.0 mg/kg/injection, schedule: Q#A X014 (ip), vehicle: carboxymethylcellulose (CMC)) was 25 % of control, the T/C (dose: 300.0 mg/kg/injection, schedule: Q01DX007 (ip), vehicle: carboxymethylcellulose (CMC)) was 32 % of control and the T/C (dose: 333.0 mg/kg/injection, schedule: Q01DX007 (ip), vehicle: carboxymethylcellulose (CMC)) was 63 % of control and 65 % of control. For the same compound, the T/C (dose: 375.0 mg/kg/injection, schedule: Q#A X014 (ip), vehicle: carboxymethylcellulose (CMC)) was 20 % of control, the T/C [1] was 42 % of control and 50 % of control and the T/C (dose: 750.0 mg/kg/injection, schedule: Q01DX007 (ip), vehicle: carboxymethylcellulose (CMC)) was 12 % of control.
CC1C/C=C2\CSC(NC(=O)/C3=C\N(C/C=C/C=C/C(O)CC(O)CC(=O)N3)C2=O)C(=O)O1 (stereo unspecified) was tested, and the T/C (dose: 18.75 mg/kg/injection, schedule: Q01DX007 (ip), vehicle: carboxymethylcellulose (CMC)) was 111 % of control, the T/C (dose: 37.5 mg/kg/injection, schedule: Q01DX007 (ip), vehicle: carboxymethylcellulose (CMC)) was 112 % of control and the T/C (dose: 150.0 mg/kg/injection, schedule: Q01DX007 (ip), vehicle: carboxymethylcellulose (CMC)) was 114 % of control. The T/C (dose: 187.0 mg/kg/injection, schedule: Q01DX007 (ip), vehicle: carboxymethylcellulose (CMC)) was 68 % of control, the T/C (dose: 250.0 mg/kg/injection, schedule: Q01DX007 (ip), vehicle: carboxymethylcellulose (CMC)) was 119 % of control and the T/C (dose: 375.0 mg/kg/injection, schedule: Q01DX007 (ip), vehicle: carboxymethylcellulose (CMC)) was 91 % of control. The T/C [1] was 73 % of control.
With COC1=C(N)C(=O)c2nc(-c3nc(C(=O)O)c(C)c(-c4ccc(OC)c(OC)c4O)c3N)ccc2C1=O the T/C (dose: 0.02 mg/kg/injection, schedule: Q01DX007 (ip), vehicle: water) was 66 % of control, the T/C (dose: 0.05 mg/kg/injection, schedule: Q01DX007 (ip), vehicle: water) was 70 % of control and the T/C (dose: 0.05 mg/kg/injection, schedule: Q#A X014 (ip), vehicle: alkali diluted with CMC) was 61 % of control. The T/C (dose: 0.09 mg/kg/injection, schedule: Q01DX007 (ip), vehicle: other) was 37 % of control, the T/C (dose: 0.1 mg/kg/injection, schedule: Q01DX007 (ip), vehicle: water) was 53 % of control and 54 % of control and the T/C (dose: 0.1 mg/kg/injection, schedule: Q#A X014 (ip), vehicle: alkali diluted with CMC) was 52 % of control. The T/C (dose: 0.13 mg/kg/injection, schedule: Q01DX007 (ip), vehicle: other) was 83 % of control, the T/C (dose: 0.2 mg/kg/injection, schedule: Q01DX007 (ip), vehicle: other) was 73 % of control and the T/C (dose: 0.2 mg/kg/injection, schedule: Q01DX007 (ip), vehicle: water) was 48 % of control. For the same compound, the T/C (dose: 0.2 mg/kg/injection, schedule: Q#A X014 (ip), vehicle: alkali diluted with CMC) was 65 % of control, the T/C (dose: 0.25 mg/kg/injection, schedule: Q01DX007 (ip), vehicle: water) was 27 % of control and the T/C (dose: 0.3 mg/kg/injection, schedule: Q01DX007 (ip), vehicle: other) was 54 % of control.
For CCCCN(C)N=Nc1ccc(CCCC(=O)OCC)cc1, the T/C (dose: 125.0 mg/kg/injection, schedule: Q01DX007 (ip), vehicle: saline) was 62 % of control and the T/C (dose: 200.0 mg/kg/injection, schedule: Q01DX007 (ip), vehicle: saline) was 40 % of control.
With CNCc1ccccc1 the T/C (dose: 146.5 mg/kg/injection, schedule: Q01DX007 (ip), vehicle: carboxymethylcellulose (CMC)) was 91 % of control.
In the case of Cc1cc(NC(=O)c2ccc(N)cc2)ccc1N=Nc1ccc(N=Nc2ccc3c(O)cc(S(=O)(=O)O)cc3c2)c2cc(S(=O)(=O)O)ccc12, the T/C (dose: 12.5 mg/kg/injection, schedule: Q01DX007 (ip), vehicle: water) is reported as 110 % of control, the T/C (dose: 25.0 mg/kg/injection, schedule: Q01DX007 (ip), vehicle: water) is reported as 97 % of control and the T/C (dose: 50.0 mg/kg/injection, schedule: Q01DX007 (ip), vehicle: water) is reported as 62 % of control.
With CC(C)Sc1nc(N)nc2c1ncn2C1OC(CO)C(O)C1O (stereo unspecified) the T/C (dose: 1.35 mg/kg/injection, schedule: Q#A X014 (ip), vehicle: methylcellulose (MC)) was 69 % of control, the T/C (dose: 2.05 mg/kg/injection, schedule: Q#A X014 (ip), vehicle: methylcellulose (MC)) was 95 % of control and the T/C (dose: 3.12 mg/kg/injection, schedule: Q#A X014 (ip), vehicle: methylcellulose (MC)) was 53 % of control. For the same compound, the T/C (dose: 4.65 mg/kg/injection, schedule: Q#A X014 (ip), vehicle: methylcellulose (MC)) was 86 % of control.
For CC(C)=C(Br)CC[C@@H](C)[C@H]1CC[C@@]2(C)C3=C(CC[C@]12C)[C@@]1(C)CC[C@H](O)C(C)(C)[C@@H]1CC3, the T/C (dose: 62.0 mg/kg/injection, schedule: Q01DX007 (sc), vehicle: steriod suspending solution) was 109 % of control, the T/C (dose: 125.0 mg/kg/injection, schedule: Q01DX007 (sc), vehicle: steriod suspending solution) was 97 % of control and the T/C (dose: 500.0 mg/kg/injection, schedule: Q01DX007 (sc), vehicle: steriod suspending solution) was 183 % of control.

From PubChem BioAssay AID342 (DTP/NCI, 2004)
